Laboratory results published in patent publication US10941109B2, “Compositions and methods of treatment using a BCAT1 inhibitor” (Ergon Pharmaceuticals, LLC, priority 2011, dated 2021).

Test system: TGF-β1-stimulated human fibroblasts
Assay: Collagen I production from TGF-β1-stimulated human fibroblasts (ELISA)
Format: cell-based
Settings: for inhibition of collagen I secretion: at a concentration of 5-10 mM; for % Control Collagen Production: 30 min pretreatment, 7 ng/mL TGF-β1 for 48 hrs, collagen I per μg cell lysate
Protocol: In vitro fibrosis is assessed by measuring collagen synthesis after treatment of fibroblast cells with a profibrotic stimuli such as TGF-β1 or bleomycin. Collagen secretion into the media can be quantified in conditioned media using an appropriate ELISA kit.
Confluent monolayers of human fibroblasts, plated onto duplicate 35 mm dishes, were pretreated with various concentrations of compounds 2, 6, and 7 for 30 min followed by stimulation of the cells with 7 ng/mL TGF-β1 for 48 hrs. At the end of the experiment, conditioned media were collected and assessed for the presence of secreted collagen I, whereas cells were collected and lysed. Collagen I secretion was quantified using an ELISA kit from R&D Systems per the manufacturer's instructions and expressed as arbitrary absorbance units per μg of cell lysate. In Table 2, results are shown as % Control Collagen Production, defined as the amount of collagen I secreted per μg of cell lysate from fibroblast cultures stimulated with TGF-β1 in the absence of an inhibitor.

Compound | inhibition of collagen I secretion | % Control Collagen Production (compound concentration 2 mM) [%] | % Control Collagen Production (compound concentration 5 mM) [%] | % Control Collagen Production (compound concentration 10 mM) [%]
CC(=O)C(CCC(=O)O)c1ccccc1 (stereo not drawn) [Compound 7, 5-oxo-4-phenylhexanoic acid] | completely inhibit | 150 | 41 | 2
CC(CCC(=O)O)C(=O)c1ccccc1 (stereo not drawn) [Compound 6, 4-methyl-5-oxo-5-phenylpentanoic acid] | completely inhibit |  | 77 | 2
CC(=O)C(C)CC(Cc1ccccc1)C(=O)O (stereo not drawn) [Compound 2, 2-benzyl-4-methyl-5-oxohexanoic acid] | completely inhibit |  | 4 | 
